The values that follow come from patent US10743544B2, “Method for inactivating Cronobacter sakazakii” (priority 2015, dated 2020).

The structures appear in SMILES notation. Entries after “also recorded” stand apart in the source; their conditions may differ.

The subject of data set [1] is Cronobacter sakazakii strains ES45, ES46, ES37, and ES39. Description: Tolerance of C. sakazakii to different natural extracts in PIF, plate count (FIG. 1). In kind it is cell-based. The settings on record: 0.5% in PIF, pH not adjusted, four strains; for growth trend of C. sakazakii (plate count): 37° C., up to 7 hours. As for the experimental part:
(§1) A commercial PIF (Wondersun, Harbin, Hei Longjiang Province, China) was purchased and reconstituted according to the manufacturer's instruction. Briefly, 15 g of the PIF was reconstituted in 100 mL of sterile distilled water. 5 mg/mL TP, malic acid, citric acid or ascorbic acid (VC) was added to the rehydrated PIF, and shaken gently to make sure that it was fully dissolved. A pH meter was used to determine the pH of all the solutions. The initial pH of rehydrated PIF was 6.82 and it dropped to pH 3.62, pH 3.55, pH 4.55 and pH 6.46 after added 5 mg/mL malic acid, citric acid, VC and TP, respectively. The final concentration of the natural extract solutions was 0.5% and the milk powder solutions were packed into different test tubes with 9 ml solution in each tube. Milk powder solution without any natural extract product was used as the control group.
1 mL of 8.0 Log CFU/mL cell suspensions of four C. sakazakii strains were separately added to 9 mL rehydrated PIF with different natural extracts prepared above to obtain final concentrations of approximately 7.0 Log CFU/mL. The cell suspensions with different natural extracts were incubated at 37° C. for 1, 3, 5 and 7 hours, and mixed to make sure that the solutions were homogeneous. After serial dilution with NS, 0.1 mL of appropriately diluted cultures were spread-plated on TSA plates and incubated upside down at 37° C. overnight to observe the growth of Cronobacter sakazakii.
The tolerance of four different ST types of Cronobacter sakazakii to different natural extracts was studied by serial dilution plate count method. The cell suspensions were separately added to PIF containing 0.5% tea polyphenols, 0.5% VC, 0.5% malic acid or 0.5% citric acid. The pH of each solution was measured using a pH meter and the plate count analysis was carried out at different time points of incubation.

Data set [2] in a line: pH of rehydrated PIF after addition of natural extract (pH meter). The format is physicochemical. Conditions: 5 mg/mL added to rehydrated PIF (initial pH 6.82). As for the experimental part: as §1
Data set [3] concerns Cronobacter sakazakii strains ES45, ES46, ES37 and ES39. Description: Tolerance of C. sakazakii to acidified natural extracts in PIF, pH 3.55 (FIG. 2). The settings on record: 0.5% in PIF, pH 3.55 versus unadjusted pH. In kind it is cell-based. The procedure:
A commercial PIF (Wondersun, Harbin, Hei Longjiang Province, China) was purchased and reconstituted according to the manufacturer's instruction. Briefly, 15 g of the PIF was reconstituted in 100 mL of sterile distilled water. 5 mg/mL TP was added to the rehydrated PIF and shaken gently to make sure it was fully dissolved. As controls, malic acid, citric acid and VC were dissolved in PIF in the same way as that of TP. A pH meter was used to determine the pH of all solutions. The initial pH of rehydrated PIF was 6.82 and the value of pH dropped to pH 3.62, pH 3.55, pH 4.55 and pH 6.46 after addition of 5 mg/mL malic acid, citric acid, VC and TP, respectively. The final concentration of the natural extract solutions was 0.5% (w/v) and PIF solutions were packed into different test tubes, each tube with 9 mL solution. PIF solution without adding additional substance was used as the blank control group.
In order to eliminate the effect of pH on the growth of Cronobacter sakazakii, it is necessary to adjust the pH for each treatment group to be the same. The pH of all the treatment groups was adjusted to pH 3.55 with 4 M HCl and 4M NaOH, which was the minimum pH of all the treatment solutions. The PIF acidified with HCl was used as the control. 1 mL of 8.0 Log CFU/mL cell suspensions of the four C. sakazakii strains were separately added to 9 mL acidified PIF with different natural extracts. […]

Turning to `O=C(O)CC(O)C(=O)O` (centres unmarked) [malic acid], in data set [1], the “growth trend of C. sakazakii (plate count)” value (“growth trend of C. sakazakii” below) is listed as “did not change much” and the “antibacterial effect in PIF” value is “not obvious”. The “pH of rehydrated PIF after addition” value in data set [2] was determined as 3.62.

In the case of `O=C(O)CC(O)(CC(=O)O)C(=O)O` [citric acid], in data set [1], the “growth trend of C. sakazakii” value is recorded as “downward trend” and the “antibacterial effect in PIF” value is recorded as “some antibacterial effect”. The “pH of rehydrated PIF after addition” value in data set [2] is recorded as 3.55. The “antibacterial/inhibitory effect after acidification compared with before” value in data set [3] is “not significantly different; also recorded: not significant”.

Consider `O=C1O[C@H]([C@@H](O)CO)C(O)=C1O` [VC, ascorbic acid], for which, in data set [1], the “growth trend of C. sakazakii” value is reported as “slower growth trend” and the “antibacterial effect in PIF” value is listed as “not obvious”. For the same compound, the “pH of rehydrated PIF after addition” value in data set [2] is 4.55. Also, the “antibacterial/inhibitory effect after acidification compared with before” value in data set [3] is given as “stronger antibacterial activity than before the treatment”.
